# Test results as given in patent US4338122A, “Biocidal 2-aryl-1,3-cyclopentanedione compounds and alkali metal and ammonium salts thereof” (Union Carbide Corporation, priority 1980, dated 1982).
# Tests used:
# [1] = system: Tomato; assay: Post-emergent herbicidal test, tomato; format: in vivo; design: key: 1: no perceptible injury; 2: intermediate degrees of injury based upon the number and extent to which leaves were injured; 3: intermediate degrees of injury based upon the number and extent to which leaves were injured; 4: intermediate degrees of injury based upon the number and extent to which leaves were injured; 5: the plant was dead; conditions: 2500 parts per million, after ten days
# Description: (§1) Suspensions of the test compounds were prepared by dissolving one gram of compound in 50 milliliters of acetone in which had been dissolved 0.1 gram (10 percent of the weight of compound) of an alkylphenoxyethoxyethanol surfactant, as an emulsifying or dispersing agent. The resulting solution was mixed into 160 milliliters of water to give roughly 200 milliliters of a suspension containing the compound in finely divided form. The thus prepared stock suspension contained 0.5 percent by weight of compound. The test concentrations employed in the tests described herein below were obtained by diluting the stock suspension with water. The test procedures were as follows:
# (§2) Experiments were also conducted to determine the phytotoxicity of representative compositions with respect to healthy fresh plants. Solutions of the compounds were prepared as described above to provide a concentration of 2500 parts per million of the test compound. The test plants were sprayed in accordance with the procedure described above for the Mite Foliage Spray Test so as to deliver approximately 100 milliliters of test solutions to the leaves of each plant tested. The sprayed plants and controls were set aside for approximately one hour to allow the solutions to dry and were then placed in the greenhouse. After ten days the plants were visually inspected to determine the extent of foliage injury. A rating of 1 indicates no perceptible injury; 5 indicates the plant was dead and ratings of 2, 3 and 4 indicate intermediate degrees of injury based upon the number and extent to which leaves were injured.
# (§3) Tests were conducted in accordance with the procedures given at pages 32 to 37 supra. The results are expressed in the same manner as used in Table I, except with respect to miticidal activity. For mite adult and mite egg comparison purposes, results are given in parts per million (ppm) required for a 50 percent kill of mites or eggs, respectively.
# [2] = system: Crabgrass; assay: Preliminary herbicide seed germination test (pre-emergent), crabgrass; format: in vivo, Digitaria sanguinalis; design: key: 5: no seedling emerged; 4: few seedlings emerged and/or very severe stunting; 3: moderate reduction in stand and/or moderate stunting; 2: very slight reduction in stand and/or slight stunting; 1: no injury; seedlings appear no different with respect to stand or growth than untreated controls; conditions: ten to twelve days after application
# Description: as §1
# (§4) The following seeds were used in this test:
# Crabgrass--Digitaria sanguinalis
# (§5) Two soil-seed mixtures were prepared as follows:
# (§6) Each of the above mixtures was rolled separately in 5 gallon containers for approximately one-half hour on ball mill to insure uniform mixing of seeds and soil. For each compound four 3-inch pots were filled with soil to within 11/2 inches of top of pots. To two of these pots were added 70 cc. of Mixture I. To the remaining 2 pots were added 70 cc. of Mixture II. The seed-soil mixture was tamped firmly, and the pots were removed to the green-house and watered lightly. About 2 hours after planting, 25 milliliters of the test formulation were added to one pot containing Mixture I and one pot containing Mixture II. An equal volume of a water solution containing acetone and an emulsifier in the same concentration as the herbicidal mixture but without the candidate herbicide was also added to each of the soil-seed mixtures. These pots are used as check or control units. The test compounds were formulated by diluting the stock suspension with water to obtain the desired concentration of the compound in parts per million of the final formulation. Each compound was tested at the same concentration. […] Ratings were made according to the following designations:
# as §3
# [3] = system: egg of the two-spotted mite (Tetranychus urticae (Koch)); assay: Mite Ovicide Test (egg); format: in vivo; design: key to Miticidal, Egg (control rating): A: Excellent Control; B: Partial Control; No Control; conditions: for Miticidal, Egg (control rating): Table I, unhatched/hatched eggs four days after spraying; for LC50: Tetranychus urticae, Table II, read-out: Miticidal LD50, Egg (ppm required for a 50 percent kill of eggs)
# Description: as §1
# The test organism was the egg of the two-spotted mite (Tetranychus urticae (Koch)), as obtained from adults reared on Tendergreen bean plants under controlled conditions of 80°±5° F. and 50±5 percent relative humidity. Heavily infested leaves from a stock culture were placed on the primary leaves of two bean plants six to eight inches in height growing in a two-and-a-half inch clay pot. Females were allowed to oviposit for a period of 48 hours and then the leaves of the infested plants were dipped in a solution containing 800 parts of tetraethyl pyrophosphate per million parts of water in order to destroy the reproductory forms and thus prevent further egg laying. […] The plants were allowed to dry thoroughly. The test compounds were formulated by diluting the stock suspension with water to give a suspension containing varying amounts of test compound per million parts of final formulation. The potted plants (one pot per compound) were placed on a revolving turntable and sprayed with 100-110 milliliters of test compound formulation by use of a DeVilbis spray gun set at 40 spig. air pressure. This application which lasted 30 seconds, was sufficient to wet the plants to run-off. As a control, 100-110 milliliters of a water solution containing acetone and emulsifier in the same concentrations as the test compound formulation, but containing no test compound, were also sprayed on plants infested with eggs. The sprayed plants were held at 80°±5° F. and 50±5 percent relative humidity for four days, after which a microscopic examination was made of unhatched (dead) and hatched (living) eggs.
# In these tests the pesticidal activity of the compounds against mites and mite eggs were rated as follows:
# as §3
# [4] = system: Cotton; assay: Post-emergent herbicidal test, cotton; format: in vivo; design: key: 1: no perceptible injury; 2: intermediate degrees of injury based upon the number and extent to which leaves were injured; 3: intermediate degrees of injury based upon the number and extent to which leaves were injured; 4: intermediate degrees of injury based upon the number and extent to which leaves were injured; 5: the plant was dead; conditions: 2500 parts per million, after ten days
# Description: as §1, §2, §3
# [5] = system: Red root pigweed (Amaranthus); assay: Preliminary herbicide seed germination test (pre-emergent), Amaranthus; format: in vivo, Amaranthus retroflexus; design: key: 5: no seedling emerged; 4: few seedlings emerged and/or very severe stunting; 3: moderate reduction in stand and/or moderate stunting; 2: very slight reduction in stand and/or slight stunting; 1: no injury; seedlings appear no different with respect to stand or growth than untreated controls; conditions: ten to twelve days after application
# Description: as §1, §4
# Red root pigweed--Amaranthus retroflexus
# as §5, §6, §3
# [6] = system: Perennial rye grass; assay: Preliminary herbicide seed germination test (pre-emergent), rye grass; format: in vivo, Solium perenne; design: key: 5: no seedling emerged; 4: few seedlings emerged and/or very severe stunting; 3: moderate reduction in stand and/or moderate stunting; 2: very slight reduction in stand and/or slight stunting; 1: no injury; seedlings appear no different with respect to stand or growth than untreated controls; conditions: ten to twelve days after application
# Description: as §1, §4
# Perennial rye grass--Solium perenne
# as §5, §6, §3
SMILES,"Post-Emergent Herbicidal, Tomato (injury rating) ([1]; Table I)","Post-Emergent Herbicidal, Tomato (injury rating) ([1]; Table II)","Pre-emergent Herbicidal, Crabgrass (injury rating) ([2]; Table I)","Pre-emergent Herbicidal, Crabgrass (injury rating) ([2]; Table II)","Miticidal, Egg (control rating) [3]",LC50 [3] [µg/mL],"Post-Emergent Herbicidal, Cotton (injury rating) ([4]; Table I)","Post-Emergent Herbicidal, Cotton (injury rating) ([4]; Table II)","Pre-emergent Herbicidal, Amaranthus (injury rating) ([5]; Table I)","Pre-emergent Herbicidal, Amaranthus (injury rating) ([5]; Table II)","Pre-emergent Herbicidal, Rye (injury rating) ([6]; Table I)","Pre-emergent Herbicidal, Rye (injury rating) ([6]; Table II)"
"Cc1ccc(C2C(=O)C3CCCCC3C2=O)c(C)c1 (stereo not drawn) [CH3 CH3 H (CH2)4, 2-(2',4'-dimethylphenyl)-4,5,6,7,8,9-hexahydro-1,3-indandione]",2,2,5,5,A,15,2,2,5,5,5,5
"Cc1ccc(C2C(=O)CCC2=O)c(C)c1 [CH3 CH3 H H H, 2-(2',4'-dimethylphenyl)-1,3-cyclopentanedione]",1,1,5,5,A,110,1,1,5,5,5,5
"Cc1ccc(C)c(C2C(=O)C3CCCCC3C2=O)c1 (stereo not drawn) [CH3 H CH3 (CH2)4, 2-(2',5'-dimethylphenyl)-4,5,6,7,8,9-hexahydro-1,3-indandione]",1,1,1,1,A,30,1,1,1,1,1,1
"Cc1ccc(C)c(C2C(=O)CC(C)C2=O)c1 (stereo not drawn) [CH3 H CH3 CH3 H, 2-(2',5'-Dimethylphenyl)-4-methyl-1,3-cyclopentanedione]",2,,2,,B,,2,,3,,4,
Cc1ccc(C)c(C2C(=O)CCC2=O)c1 [CH3 H CH3 H H],1,,2,,B,,2,,3,,4,
"Cc1ccccc1C1C(=O)C2CCCCC2C1=O (stereo not drawn) [CH3 H H (CH2)4, 2-(2'-Methylphenyl)-4,5,6,7,8,9-hexahydro-1,3 indandione]",1,1,3,3,A,22,3,3,3,3,5,5
"Cc1ccccc1C1C(=O)CCC1=O [CH3 H H H H, 2-(2'-methylphenyl)-1,3-cyclopentanedione]",2,2,2,2,B,500,3,3,1,1,5,5
"O=C1CCC(=O)C1c1ccc(Cl)cc1Cl [Cl Cl H H H, 2-(2',4'-Dichlorophenyl)-1,3-cyclopentanedione]",1,,1,,B,,2,,1,,1,
O=C1CCC(=O)C1c1ccccc1Cl [Cl H H H H],1,,3,,C,,2,,1,,5,
"Cc1ccccc1C1C(=O)c2ccccc2C1=O [Reference I Page 3, Compound 1, reference compound]",,2,,2,,500,,1,,2,,1
"Cc1ccc(C)c(C2C(=O)c3ccccc3C2=O)c1 [Reference II Page 146, Compound 6, reference compound]",,1,,1,,200,,1,,1,,1
"Cc1ccc(C2C(=O)c3ccccc3C2=O)c(C)c1 [Reference II Page 146, Compound 9, reference compound]",,1,,3,,110,,1,,3,,4
